The source of these data is US9248111B2, “Therapeutic approaches for treating parkinson's disease” (PHARNEXT, priority 2011, dated 2016).

What all share (type): cell-based, rat
One assay concerns cortical neuronal cells. The experiment in a line: Oxygen and glucose deprivation assay (in vitro model of ischemia), neurite network by MAP2. The note with it: alone or combined. The procedure:
B—Protective Effect Against Ischemia/Hypoxia Induced Neuronal Cell Death Rat Neuronal Cortical Cells Preparation
Cells are prepared as previously.
The neuroprotective effect of compounds is assessed by quantification of the neurite network using MAP2 antibody. Riluzole, a neuroprotective drug, (Riluteck®, 5 μM) is used as positive control.
After 10 days of neuron culture, candidate drugs are solved in culture medium (+0.1% DMSO) and then pre-incubated with neurons for 1 hour before the oxygen and glucose deprivation. One hour after candidate drug incubation, the medium is removed and fresh medium without glucose is added. This medium is composed by DMEM without glucose (Invitrogen) supplemented with 2% B27, 0.2 mM L-glutamine, 1% PS solution, 10 ng/ml of BDNF. The cells are transferred into an anaerobic incubator with 95% N2 and 5% CO2 at 37° C.
After 2 hours, 25 mM of D-Glucose will be added in culture medium and cells are transferred in classic incubator with 95% air/5% CO2 at 37° C. After 24 hours of oxygen glucose reperfusion, cells are fixed by a cold solution of alcohol/acetic acid during 5 minutes.
After permeabilization with saponin (Sigma), cells are blocked for 2 hours with PBS containing 10% goat serum, then the cells are incubated with mouse monoclonal primary antibody against MAP2 (MAP2, Sigma).
Nuclei of cells are labelled by a fluorescent marker (Hoechst solution, SIGMA). Six wells per condition are used to assess neuronal survival in 3 different cultures.
For each condition 2×10 pictures per well are taken and analyzed using InCell Analyzer TM 1000 (GE Healthcare) with 20× magnification.

Assay [1] deals with dopaminergic neuronal cells. In words: 6-OHDA injury on mesencephalic dopaminergic neurons, number of TH positive neurons. As to the method: 6-hydroxydopamine (6-OHDA) is a neurotoxic drug which selectively initiates neuronal degeneration of dopaminergic neurons by generating reactive oxygen species and mitochondrial respiratory dysfunction which are thought to mirror events occurring in Parkinsonian brain. 6-OHDA toxicity is commonly used in vitro and in vivo to study Parkinsonism.
Rat dopaminergic neurons were cultured as described by Schinelli et al.. Pregnant female rats of 15 days gestation were killed by cervical dislocation (Rats Wistar; Janvier) and the foetuses removed from the uterus. The embryonic midbrains were removed and placed in ice-cold medium of Leibovitz (L15; PanBiotech) containing 2% of Penicillin-Streptomycin (PS; PanBiotech) and 1% of bovine serum albumin (BSA; PanBiotech). Only the ventral portions of the mesencephalic flexure were used for the cell preparations as this is the region of the developing brain rich in dopaminergic neurons. The midbrains were dissociated by trypsinisation for 20 min at 37° C. (Trypsin EDTA 1×; PanBiotech). The reaction is stopped by the addition of Dulbecco's modified Eagle's medium (DMEM; PanBiotech) containing DNAase I grade II (0.1 mg/ml; PanBiotech) and 10% of foetal calf serum (FCS; Invitrogen). Cells were then mechanically dissociated by 3 passages through a 10 ml pipette and centrifuged at 180×g for 10 min at +4° C. on a layer of BSA (3.5%) in L15 medium. The supernatant was discarded and the cells of pellet were re-suspended in a defined culture medium consisting of Neurobasal (Invitrogen) supplemented with B27 (2%; Invitrogen), L-glutamine (2 mM; PanBiotech) and 2% of PS solution and 10 ng/ml of Brain-derived neurotrophic factor (BDNF, PanBiotech) and 1 ng/ml of Glial-Derived Neurotrophic Factor (GDNF, PanBiotech). Viable cells were counted in a Neubauer cytometer using the trypan blue exclusion test. The cells were seeded at a density of 40 000 cells/well in 96 well-plates (pre-coated with poly-L-lysine (Greiner)) and are cultured at 37° C. in a humidified air (95%)/CO2 (5%) atmosphere. Half of the medium was changed every 2 days with fresh medium. Five to six percent of the neuronal cell population were dopaminergic neurons.
On day 6 of culture, the medium was removed and fresh medium was added, without or with 6-OHDA at the following concentrations: 20 μM during 48 hours diluted in control medium. Test compounds were pre-incubated for 1 h before the 6-OHDA application during 48 hours.
After 48 hours of intoxication with 6-OHDA, cells were fixed by a solution of 4% paraformaldehyde (Sigma) in PBS, pH=7.3 for 20 min at room temperature. The cells were washed again twice in PBS, and then permeabilized and non-specific sites were blocked with a solution of PBS containing 0.1% of saponin (Sigma) and 1% FCS for 15 min at room temperature. Then, cells were incubated with Monoclonal Anti-Tyrosine Hydroxylase antibody produced in mouse (TH, Sigma) at dilution of 1/1000 in PBS containing 1% FCS, 0.1% saponin, for 2 hours at room temperature.
For each condition, 2×10 pictures (representing ˜80% of total well area) per well were taken using InCell Analyzer™ 1000 (GE Healthcare) with 10× magnification. All images were taken in the same conditions. […]
Data are expressed in percentage of control conditions (no intoxication, no 6-OHDA=100%) in order to express the 6-OHDA injury. All values are expressed as mean+/−SEM (s.e. mean) of the 3 cultures (n=6 wells per condition per culture). […]

The test system of another assay is neuronal cortical cells. The experiment in a line: Glutamate toxicity assay, neurite network (neurofilament immunostaining) of primary cortical neurons. The note with it: alone or combined. As to the method: Glutamate toxicity is involved in the pathogenesis of Parkinson's disease. In this set of experiment, candidate compounds have been tested for their ability to prevent or reduce the toxic effects of glutamate toxicity on neuronal cells. The drugs are first tested individually, followed by assays of their combinatorial action.
The efficacy of drug combinations of the invention is assessed on primary cortical neuron cells.
Rat cortical neurons were cultured as described by Singer et al.. Briefly pregnant female rats of 15 days gestation were killed by cervical dislocation (Rats Wistar) and the foetuses were removed from the uterus. The cortex was removed and placed in ice-cold medium of Leibovitz (L15) containing 2% of Penicillin 10.000 U/ml and Streptomycin 10 mg/ml and 1% of bovine serum albumin (BSA). Cortices were dissociated by trypsin for 20 min at 37° C. (0.05%). The reaction was stopped by the addition of Dulbecco's modified Eagle's medium (DMEM) containing DNaseI grade II and 10% of foetal calf serum (FCS). Cells were then mechanically dissociated by 3 serial passages through a 10 ml pipette and centrifuged at 515 g for 10 min at +4° C. The supernatant was discarded and the pellet of cells was re-suspended in a defined culture medium consisting of Neurobasal supplemented with B27 (2%), L-glutamine (0.2 mM), 2% of PS solution and 10 ng/ml of BDNF. Viable cells were counted in a Neubauer cytometer using the trypan blue exclusion test. The cells were seeded at a density of 30 000 cells/well in 96 well-plates (wells were pre-coated with poly-L-lysine (10 μg/ml)) and were cultured at +37° C. in a humidified air (95%)/CO2 (5%) atmosphere.
After 12 days of neuron culture, drugs of the candidate combinations are solved in culture medium (+0.1% DMSO). Candidate combinations are then pre-incubated with neurons for 1 hour before the glutamate injury. One hour after incubation with, glutamate is added for 20 min, to a final concentration of 40 μM, in presence of candidate combinations, in order to avoid further drug dilutions. At the end of the incubation, medium is changed with medium with candidate combination but without glutamate. The culture is fixed 24 hours after glutamate injury. MK801 (dizocilpinehydrogen maleate, 77086-22-7-20 μM) is used as a positive control.
After permeabilization with saponin (Sigma), cells are blocked for 2 h with PBS containing 10% goat serum, then the cells are incubated with mouse monoclonal primary antibody against Neurofilament antibody (NF, Sigma).
Nuclei of cells are labeled by a fluorescent marker (Hoechst solution, SIGMA), and neurite network quantified. Six wells per condition are used to assess neuronal survival in 3 different cultures.

Where [2] appears, read: FIG. 4: baclofen 80 nM, acamprosate 0.32 nM.
Setting [3] is: FIG. 12A: baclofen 32 nM alone, acamprosate 10 pM alone.
Setting [4] is: FIG. 12B: baclofen 32 nM alone, acamprosate 4 pM alone.
Where [5] appears, read: FIG. 3: baclofen 400 nM, acamprosate 1.6 nM.
Where [6] appears, read: FIG. 6: cinacalcet 64 pM, mexiletine 25.6 pM.
Setting [7] is: FIG. 1: cinacalcet 64 pM, mexiletine 25.6 pM.
Setting [8] is: FIG. 5: sulfisoxazole 1.36 nM, torasemide 80 nM.
[9] abbreviates: FIG. 2: sulfisoxazole 6.8 nM, torasemide 400 nM.

`CC(=O)NCCCS(=O)(=O)O` [acamprosate]: the “protection against ischemic injury” value in the assay with cortical neuronal cells (setting [2]) is given as “no significant protection”. For the same molecule, the “protection from 6-OHDA injury, single drugs” value in assay [1] (setting [3]) and in assay [1] (setting [4]) was “low effect” throughout. Besides, in the assay with neuronal cortical cells (setting [5]), the “prevention of glutamate intoxication” value is recorded as “no significant effect”.
Consider `NCC(CC(=O)O)c1ccc(Cl)cc1` (centres unmarked) [baclofen], for which, in the assay on cortical neuronal cells (setting [2]), the “protection against ischemic injury” value is listed as “no significant protection”. Also, the “protection from 6-OHDA injury, single drugs” value in assay [1] (setting [3]) and in assay [1] (setting [4]) was “low effect” each time. Besides, the “prevention of glutamate intoxication” value in the assay on neuronal cortical cells (setting [5]) is “no significant effect”.
With `C[C@@H](NCCCc1cccc(C(F)(F)F)c1)c1cccc2ccccc12` [cinacalcet], in the assay on cortical neuronal cells (setting [6]), the “protection against ischemic injury” value is on record as “No significant protection”. The “prevention of glutamate intoxication” value with neuronal cortical cells (setting [7]) was “no significant effect”.
On to `Cc1cccc(C)c1OCC(C)N` (centres unmarked) [mexiletine], for which the “protection against ischemic injury” value in the assay on cortical neuronal cells (setting [6]) was “No significant protection”. The “prevention of glutamate intoxication” value in the assay with neuronal cortical cells (setting [7]) is given as “no significant effect”.
For the molecule `Cc1noc(NS(=O)(=O)c2ccc(N)cc2)c1C` [sulfisoxazole], the “protection against ischemic injury” value in the assay with cortical neuronal cells (setting [8]) is reported as “no significant protection”. The “prevention of glutamate intoxication” value with neuronal cortical cells (setting [9]) is given as “no significant effect”.
On to `Cc1cccc(Nc2ccncc2S(=O)(=O)NC(=O)NC(C)C)c1` [torasemide], for which the “protection against ischemic injury” value with cortical neuronal cells (setting [8]) is reported as “no significant protection”. Also, the “prevention of glutamate intoxication” value with neuronal cortical cells (setting [9]) is “no significant effect”.

B1: BDNF: Brain-derived neurotrophic factor, used as a positive control (protein, UniProt P23560 129-247, looked up)
Neurotrophic factor BDNF: HSDPARRGELSVCDSISEWVTAADKKTAVDMSGGTVTVLEKVPVSKGQLKQYFYETKCNPMGYTKEGCRGIDKRHWNSQCRTTQSYVRALTMDSKKRIGWRFIRIDTSCVCTLTIKRGR
modifications: Neurotrophic factor BDNF
notes: Brain-derived neurotrophic factor, used as a positive control
B1: in assay [1] (1.85 nM, one hour pre-treatment, positive control), the “protection of dopaminergic neurons from 6-OHDA injury” value is on record as “significantly protected”.
